This is an account of results in PubChem BioAssay (NCI).

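Test compounds were applied to cells in 96-well plates for 48 hours at 5 doses. TGI denotes the concentration required for complete inhibition of growth.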

Among the test systems are A549 NSCLC; ACHN renal; IGROV1 ovarian; M14 melanoma; MDA-MB-435; MOLT-4 leukemia; NCI-H226 lung; NCI-H460 lung; OVCAR-8 ovarian; SK-OV-3 ovarian.
What all share (assay): DTP human tumour cell line panel, 48 h

Regarding `c1ccc(-c2cc(-c3cc(-c4ccccc4)no3)on2)cc1`, the concentration for total growth inhibition (TGI) (in general, the concentration at which net growth stops) is greater than 100 µM in the test with A549 NSCLC; greater than 100 µM with ACHN renal; greater than 100 µM with IGROV1 ovarian; greater than 100 µM in the test with M14 melanoma; greater than 100 µM with MDA-MB-435; 81.3 µM in the test on MOLT-4 leukemia. Moreover, the TGI is greater than 100 µM in the test with NCI-H226 lung, greater than 100 µM in the test on NCI-H460 lung, 30.2 µM in the test with OVCAR-8 ovarian and 89.9 µM in the test on SK-OV-3 ovarian.

For `O=C(NC1CCN(Cc2ccccc2)CC1)c1ccccc1I`, the TGI in the test on A549 NSCLC is greater than 100 µM; in the test with ACHN renal it was greater than 100 µM; in the test with IGROV1 ovarian, greater than 100 µM; with M14 melanoma, 33.4 µM; in the test with MDA-MB-435 it was 32.4 µM; in the test on MOLT-4 leukemia it was 55.1 µM. Moreover, the TGI is 72.8 µM in the test with NCI-H226 lung, 67.7 µM in the test on NCI-H460 lung, greater than 100 µM in the test on OVCAR-8 ovarian and 43.6 µM in the test with SK-OV-3 ovarian.

In the case of `N#C/C(N)=C(\C#N)N=CNc1ccccc1N`, the TGI in the test on A549 NSCLC, in the test with ACHN renal, with IGROV1 ovarian, in the test on M14 melanoma, with MDA-MB-435 and in the test with MOLT-4 leukemia was greater than 100 µM throughout. In addition, the TGI with NCI-H226 lung, in the test on NCI-H460 lung, in the test with OVCAR-8 ovarian and in the test on SK-OV-3 ovarian was greater than 100 µM each time.

Consider `CC(C)(Cc1ccccc1)Cc1cc(O)ccc1O`, for which the concentration for total growth inhibition (TGI) with A549 NSCLC was greater than 100 µM; in the test on ACHN renal, 66.1 µM; in the test on IGROV1 ovarian, greater than 100 µM; in the test with M14 melanoma, 37.4 µM; in the test with MDA-MB-435, 49.2 µM; with MOLT-4 leukemia it was 49.5 µM. Further, the total growth inhibition concentration (TGI) with NCI-H226 lung came out at 97.8 µM; in the test with NCI-H460 lung, 37.4 µM; with OVCAR-8 ovarian, 40.7 µM; in the test with SK-OV-3 ovarian, 71 µM.

Consider `CCC(C)(C)c1ccc(Oc2cccc(C(=O)O)c2)cc1`, for which the TGI with A549 NSCLC was greater than 100 µM; with ACHN renal it was greater than 100 µM; with IGROV1 ovarian, greater than 100 µM; in the test on M14 melanoma, greater than 100 µM; in the test with MDA-MB-435, greater than 100 µM; in the test with MOLT-4 leukemia it was 70.7 µM. Further, the TGI in the test on NCI-H226 lung, in the test on NCI-H460 lung, in the test on OVCAR-8 ovarian and with SK-OV-3 ovarian was greater than 100 µM throughout.

Take `O=C1C(c2c(O)[nH]c3ccc(S(=O)(=O)N(CCO)CCO)cc23)=Nc2ccccc21`: the TGI in the test on A549 NSCLC, in the test on ACHN renal, in the test with IGROV1 ovarian, in the test with M14 melanoma, with MDA-MB-435 and in the test with MOLT-4 leukemia was greater than 100 µM each time. Besides, the concentration for total growth inhibition (TGI) in the test on NCI-H226 lung, with NCI-H460 lung, in the test on OVCAR-8 ovarian and in the test on SK-OV-3 ovarian was greater than 100 µM each time.

Turning to `O=C(NO)c1ccc(OCc2ccccc2)cc1`, the TGI was greater than 100 µM with A549 NSCLC; 88.8 µM in the test with ACHN renal; greater than 100 µM in the test on IGROV1 ovarian; greater than 100 µM with M14 melanoma; greater than 100 µM in the test on MDA-MB-435; greater than 100 µM with MOLT-4 leukemia. Further, the total growth inhibition concentration (TGI) in the test with NCI-H226 lung is greater than 100 µM; in the test on NCI-H460 lung it was greater than 100 µM; with OVCAR-8 ovarian it was 28.7 µM; in the test on SK-OV-3 ovarian, greater than 100 µM.

With `C[C@]12CCC(=O)C=C1CC[C@@H]1[C@@H]2CC[C@]2(C)C(=O)/C(=C\c3ccccc3)C[C@@H]12`, the TGI with A549 NSCLC was greater than 68 µM; with ACHN renal it was greater than 100 µM; with IGROV1 ovarian it was greater than 100 µM; in the test on M14 melanoma it was greater than 66.2 µM; with MDA-MB-435, greater than 100 µM; with MOLT-4 leukemia, greater than 57 µM. Also, the total growth inhibition concentration (TGI) was 33.5 µM in the test with NCI-H226 lung, greater than 66 µM in the test on NCI-H460 lung, greater than 100 µM in the test on OVCAR-8 ovarian and greater than 100 µM in the test with SK-OV-3 ovarian.

Consider `COc1ccc(N2C(=O)CC(c3c[nH]c4ccccc34)C2=O)cc1` (stereo not given), for which the total growth inhibition concentration (TGI) in the test with A549 NSCLC, in the test with ACHN renal, with IGROV1 ovarian, with M14 melanoma, in the test on MDA-MB-435 and with MOLT-4 leukemia was greater than 100 µM throughout. In addition, the concentration for total growth inhibition (TGI) in the test with NCI-H226 lung, with NCI-H460 lung, in the test on OVCAR-8 ovarian and in the test with SK-OV-3 ovarian was greater than 100 µM each time.

Consider `COc1ccc2nc(-c3ccc(O)cc3)cn2c1`, for which the TGI in the test with A549 NSCLC, in the test on ACHN renal, with IGROV1 ovarian, in the test on M14 melanoma, in the test with MDA-MB-435 and in the test with MOLT-4 leukemia was greater than 100 µM each time. For the same molecule, the TGI in the test with NCI-H226 lung, in the test with NCI-H460 lung, with OVCAR-8 ovarian and in the test on SK-OV-3 ovarian was greater than 100 µM in each case.

`O=C1/C(=C/c2ccc(O)cc2)CCc2ccccc21`: the TGI in the test with A549 NSCLC is 64.1 µM; with ACHN renal, 69.5 µM; in the test with IGROV1 ovarian, greater than 76 µM; in the test with M14 melanoma it was 36.6 µM; with MDA-MB-435, 52.8 µM; in the test with MOLT-4 leukemia it was 12.4 µM. The total growth inhibition concentration (TGI) was 57.8 µM in the test with NCI-H226 lung, 72.4 µM in the test on NCI-H460 lung, 73.5 µM with OVCAR-8 ovarian and greater than 89.4 µM in the test on SK-OV-3 ovarian.

With `Clc1ccc(-c2cc(-c3nc4ccccc4[nH]3)no2)cc1`, the TGI was 36 µM in the test with A549 NSCLC; 36.9 µM in the test on ACHN renal; 62.1 µM with IGROV1 ovarian; 34.6 µM in the test with M14 melanoma; 31.6 µM in the test with MDA-MB-435; 47.9 µM in the test on MOLT-4 leukemia. Moreover, the TGI was found to be 79.9 µM with NCI-H226 lung, 32.6 µM with NCI-H460 lung, 67.4 µM with OVCAR-8 ovarian and 35.8 µM with SK-OV-3 ovarian.

Take `O=c1[nH][nH]c(=S)c(=O)[nH]1`: the TGI in the test on A549 NSCLC, in the test on ACHN renal, in the test with IGROV1 ovarian, with M14 melanoma, in the test on MDA-MB-435 and in the test on MOLT-4 leukemia was greater than 100 µM each time. Further, the TGI in the test on NCI-H226 lung, in the test with NCI-H460 lung, with OVCAR-8 ovarian and with SK-OV-3 ovarian was greater than 100 µM throughout.
